Results from paper PMC5404542, “In Vitro and In Vivo Antifungal Profile of a Novel and Long-Acting Inhaled Azole, PC945, on Aspergillus fumigatus Infection” (Antimicrobial Agents and Chemotherapy, 2017).
In brackets after ≈: the same amount, converted by molar mass. Several values for one entry are separate records, joined by “and”; a condition that tells them apart may be missing. Equal entries are not always repeated. Where two headings read alike, the source gives them in different places. Marks after values point to notes of the source that are not given here.

Experiments:
[1] = system: Mucor circinelloides (ATCC 8542); assay: MIC, CLSI; assay type: cell-based; details: ATCC8542, 1 strain
[2] = system: Aspergillus flavus (ATCC 204304); assay: MIC, CLSI; assay type: cell-based; details: ATCC204304, 1 strain, CLSI, read-out: MIC
[3] = system: Aureobasidium pullulans (ATCC 9348); assay: MIC, CLSI; assay type: cell-based; details: ATCC9348, 1 strain
[4] = system: Aspergillus terreus (AT49, AT7130); assay: MIC, EUCAST; assay type: cell-based; details: 2 strains, EUCAST, mean isolate MIC, read-out: MIC
[5] = system: Aspergillus carbonarius (ATCC 8740); assay: MIC, CLSI; assay type: cell-based; details: ATCC8740, 1 strain, CLSI, read-out: MIC
AfCYP51A [6] = molecular target: T1, AfCYP51A (Aspergillus fumigatus, UniProt Q4WNT5); assay: A. fumigatus CYP51 binding assay (ligand titration, type II difference spectra); set-up: made in house
Procedure: A. fumigatus CYP51 binding properties were determined as described by Warrilow et al. ([35]). Test agents were titrated against 4 μM recombinant A. fumigatus CYP51A or CYP51B protein, and binding saturation curves were constructed from the change in the absorbance between the spectral peak and the trough. A rearrangement of the Morrison equation was used to determine the dissociation constant (Kd) values when ligand binding was tight ([36]).

[7] = system: 96 clinically isolated A. fumigatus strains; assay: MIC against 96 clinically isolated strains (EUCAST, visual)
Procedure: (§2) Conidia were added across the plate to a final concentration of 1 × 10^5 ml^−1. […] Determination of antifungal activity against 50 A. fumigatus clinical isolates from St. Louis Hospital (Paris, France) was performed with 96-well plates, using the modified EUCAST method in the presence of 0.5% BSA as described above. Antifungal susceptibility testing of 46 A. fumigatus isolates (obtained from the NW England Mycology Reference Centre) was performed by Evotec UK Ltd. (Manchester, United Kingdom) according to EUCAST guidelines.

[8] = system: Lichtheimia corymbifera (ATCC 7909); assay: MIC, CLSI; assay type: cell-based; details: ATCC7909, 1 strain
AfCYP51B = molecular target: T2, AfCYP51B (Aspergillus fumigatus, UniProt E9QY26); assay: CYP51 reconstitution assay (sterol 14α-demethylase activity); assay type: biochemical; details: for IC50: 0.5 μM AfCYP51B from membrane fraction of E. coli expression clones; for Ki: suggested from tight-binding inhibition, read-out: Ki.app, CYP51B
T2 construct: made in house; host or cells: Escherichia coli (membrane fraction)
T2 sequence (E9QY26 1-524): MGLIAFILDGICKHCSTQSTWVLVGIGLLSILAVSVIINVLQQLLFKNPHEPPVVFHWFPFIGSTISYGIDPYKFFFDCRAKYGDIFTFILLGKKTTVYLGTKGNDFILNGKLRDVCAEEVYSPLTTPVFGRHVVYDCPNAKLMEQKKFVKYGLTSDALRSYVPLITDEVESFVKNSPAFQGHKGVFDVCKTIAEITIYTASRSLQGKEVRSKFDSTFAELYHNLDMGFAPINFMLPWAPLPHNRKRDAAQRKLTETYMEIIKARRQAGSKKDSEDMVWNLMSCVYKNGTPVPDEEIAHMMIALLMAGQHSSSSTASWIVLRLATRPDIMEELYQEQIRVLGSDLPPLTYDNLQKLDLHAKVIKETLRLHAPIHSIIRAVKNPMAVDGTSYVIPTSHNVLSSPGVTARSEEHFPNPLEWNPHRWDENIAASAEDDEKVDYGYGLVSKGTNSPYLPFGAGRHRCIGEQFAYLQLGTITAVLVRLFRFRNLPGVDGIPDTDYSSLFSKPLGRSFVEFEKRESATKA
Procedure: (§1) A CYP51 reconstitution assay system was used to determine 50% inhibitory concentrations (IC50s) ([37]). Test agent was added to a mixture of 0.5 μM CYP51, 1 μM A. fumigatus cytochrome P450 reductase isoenzyme 1 (AfCPR1), 50 μM eburicol, 4% (wt/vol) 2-hydroxypropyl-β-cyclodextrin, 0.4 mg ml^−1 isocitrate dehydrogenase, 25 mM trisodium isocitrate, 50 mM NaCl, 5 mM MgCl2, and 40 mM 3-(N-morpholino) propanesulfonic acid (MOPS) (pH ∼7.2). The mixtures were then incubated at 37°C for 10 min prior to initiation with 4 mM β-NADPHNa4 followed by shaking for 20 min at 37°C. Sterol metabolites were recovered by extraction with ethyl acetate followed by derivatization with 0.1 ml N,O-bis(trimethylsilyl)trifluoroacetamide:trimethylchlorosilane (99:1) and 0.3 ml anhydrous pyridine prior to analysis by gas chromatography-mass spectrometry.

[9] = system: Rhizopus oryzae (ATCC 11145); assay: MIC, CLSI; assay type: cell-based
[10] = system: Penicillium citrinum (ATCC 9849); assay: MIC, CLSI; assay type: cell-based; details: ATCC9849, 1 strain
AfCYP51A [11] = molecular target: T1, AfCYP51A; assay: CYP51 reconstitution assay (sterol 14α-demethylase activity); assay type: biochemical; set-up: made in house; host or cells: Escherichia coli (membrane fraction)
Procedure: as §1

[12] = system: Aspergillus flavus (AFL8, NRRC3357); assay: MIC, EUCAST; assay type: cell-based; details: 2 strains, EUCAST, mean isolate MIC, read-out: MIC
A. fumigatus (NCPF2010) = assay: A. fumigatus cell-based ergosterol assay; set-up: species or system Aspergillus fumigatus; details: for IC50: Aspergillus fumigatus, NCPF2010, 24 h, normalized by crystal violet, read-out: IC50, inhibition of ergosterol production
Procedure: After incubation for 24 h at 35°C, medium was removed from all wells and replaced with reaction buffer (Amplex red cholesterol assay kit; Thermo Fisher) and Amplex red solution. Plates were incubated for 30 min at 37°C, protected from light, after which fluorescence was quantified using a spectrophotometer. Medium was removed from all wells and replaced with crystal violet solution (1% [vol/vol]), and plates were incubated at room temperature on a shaker for 30 min. Plates were washed three times with phosphate-buffered saline (PBS), and sodium dodecyl sulfate solution (0.1% [vol/vol]) was added across the plate to lyse the cells. After incubation at room temperature for 1 h, the absorbance was measured by determining the OD590 by use of a spectrophotometer.

[13] = system: Cladosporium argillaceum (ATCC 38013); assay: MIC, CLSI; assay type: cell-based; details: Rhizocladosporium argillaceum, ATCC38013, 1 strain
A. fumigatus ATCC 204305 = assay: MIC with and without BSA supplementation, quality control strain; details: Aspergillus fumigatus
Procedure: as §2

[14] = system: Gibberella zeae (Fusarium graminearum) (ATCC 16106); assay: microbe, parasite or virus in culture; assay type: cell-based; details: ATCC16106
[15] = system: Chaetomium globosum (ATCC 44699); assay: MIC, CLSI; assay type: cell-based; details: ATCC44699, 1 strain
[16] = 96 clinical isolates, determined visually
[17] = Aspergillus fumigatus, read-out: MIC, Geometric mean
[18] = Aspergillus fumigatus, read-out: MIC, Mode
[19] = Rhizopus arrhizus, ATCC11145, 1 strain, read-out: MIC

T1 sequence (Q4WNT5 whole entry): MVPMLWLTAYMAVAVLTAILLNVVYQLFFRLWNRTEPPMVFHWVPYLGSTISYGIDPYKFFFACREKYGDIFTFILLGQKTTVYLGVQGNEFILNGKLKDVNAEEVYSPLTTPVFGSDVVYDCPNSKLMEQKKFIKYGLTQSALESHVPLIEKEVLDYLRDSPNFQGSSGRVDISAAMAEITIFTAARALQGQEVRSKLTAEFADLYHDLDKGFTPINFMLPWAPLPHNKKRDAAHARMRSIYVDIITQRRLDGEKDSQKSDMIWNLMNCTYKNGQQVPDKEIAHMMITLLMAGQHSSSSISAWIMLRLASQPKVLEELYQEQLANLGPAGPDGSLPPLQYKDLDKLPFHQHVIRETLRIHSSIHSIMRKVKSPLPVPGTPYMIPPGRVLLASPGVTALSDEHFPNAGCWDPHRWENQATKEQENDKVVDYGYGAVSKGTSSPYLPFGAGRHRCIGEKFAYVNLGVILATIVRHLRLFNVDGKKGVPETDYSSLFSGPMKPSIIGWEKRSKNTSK

Row | Compound | MIC [1] [µg/mL] | MIC [2] [µg/mL] | MIC [3] [µg/mL] | MIC [4] [µg/mL] | MIC [5] [µg/mL] | Kd (AfCYP51A [6]) [nM] | MIC50 ([7]; Aspergillus fumigatus) [µg/mL] | MIC90 ([7]; Aspergillus fumigatus) [µg/mL] | MIC [7, 17] [µg/mL] | MIC [7, 18] [µg/mL] | MIC [8] [µg/mL] | IC50 (AfCYP51B) [nM] | Ki (AfCYP51B) [nM] | MIC ([9]; 1 strain) [µg/mL] | MIC [9, 19] [µg/mL] | MIC [10] [µg/mL] | IC50 (AfCYP51A [11]) [nM] | Ki (AfCYP51A [11]) [nM] | MIC [12] [µg/mL] | IC50 (A. fumigatus (NCPF2010)) | other results
1 | CC[C@@H]([C@H](C)O)n1ncn(-c2ccc(N3CCN(c4ccc(OC[C@@H]5CO[C@@](Cn6cncn6)(c6ccc(F)cc6F)C5)cc4)CC3)cc2)c1=O [Posaconazole, posaconazole] | > 8 | 0.13 (≈ 0.186 µM) | 1 (≈ 1.43 µM) | 0.093 (≈ 0.133 µM) | 0.063 (≈ 0.0899 µM) | 960 | 0.063 (≈ 0.0899 µM) | 0.5 (≈ 0.713 µM) | 0.1 (≈ 0.143 µM) | 0.032 (≈ 0.0457 µM) | > 8 | 170 | < 1 | >8 | > 8 | 0.5 (≈ 0.713 µM) | 160 | < 1 | 0.16 (≈ 0.228 µM) | 0.012 µg/mL and 17 nM | MIC, Range [7, 16]: 0.016 to 2 µg/mL; MIC ([7]; Aspergillus fumigatus, ATCC204305, read-out: MIC, quality control strain): 0.25 µg/mL (≈ 0.357 µM); MIC [13]: 0.25 µg/mL (≈ 0.357 µM); MIC (A. fumigatus ATCC 204305; ATCC204305, with BSA): 0.06 µg/mL (≈ 0.0856 µM); MIC (A. fumigatus ATCC 204305; ATCC204305, without BSA): 0.03 µg/mL (≈ 0.0428 µM); MIC [14]: > 8 µg/mL; MIC [15]: 0.25 µg/mL (≈ 0.357 µM)
2 | Cc1cc(N2CCN(c3ccc(C(=O)Nc4ccc(F)cc4)cc3)CC2)ccc1OC[C@@H]1CO[C@@](Cn2cncn2)(c2ccc(F)cc2F)C1 [PC945, 4-[4-(4-{[(3R,5R)-5-(2,4-difluorophenyl)-5-(1H-1,2,4-triazol-1-ylmethyl)oxolan-3-yl]methoxy}-3-methylphenyl)piperazin-1-yl]-N-(4-fluorophenyl)benzamide] | > 8 | > 8 | > 8 | 0.078 (≈ 0.114 µM) | 4 (≈ 5.86 µM) | 500 | 0.125 (≈ 0.183 µM) | 1 (≈ 1.46 µM) | 0.17 (≈ 0.249 µM) | 0.125 (≈ 0.183 µM) | > 8 | 220 | < 1 | 2 (≈ 2.93 µM) | 2 (≈ 2.93 µM) | > 8 | 230 | < 1 | 6 (≈ 8.79 µM) | 0.0047 µg/mL and 6.9 nM | difference spectra on titration against purified CYP51A (AfCYP51A [6]): type II difference spectra; concentration up to which growth was not completely inhibited ([7]; 5 of the 13 posaconazole-resistant isolates, NW Mycology Centre): > 8 µg/mL; fold more potent than voriconazole, based on the geometric mean ([7]; 96 clinical isolates): 2.5 fold; MIC90 [7, 16]: 1 µg/mL (≈ 1.46 µM); MIC, Geometric mean [7, 16]: 0.17* μg/ml; fold more potent than posaconazole, ergosterol production (A. fumigatus (NCPF2010)): 2.6 fold; fold more potent than voriconazole, ergosterol production (A. fumigatus (NCPF2010)): 14 fold; MIC [13]: > 8 µg/mL; MIC (A. fumigatus ATCC 204305; ATCC204305, with BSA): 0.0625 µg/mL (≈ 0.0915 µM); MIC (A. fumigatus ATCC 204305; ATCC204305, without BSA): 0.25 µg/mL (≈ 0.366 µM); MIC [14]: > 8 µg/mL; MIC [15]: > 8 µg/mL
